Assay results: US9127079B2, “Inhibitors of phosphatase and tensin homolog (PTEN) conjugates” (THE UNIVERSITY OF BRITISH COLUMBIA, priority 2009, dated 2015)

Test system: PTEN
Assay: Western blotting of nuclear fractions from cultured neurons: PTEN nuclear translocation
Type: cell-based, rat
Details: NMDA stimulation
Experimental: Dissociated cultures of rat cortical or hippocampal neurons were prepared from 18-d-old Sprague Dawley rat embryos as described previously (Mielke and Wang 2005). To obtain mixed cultures enriched with neurons, uridine (10 μM) and 5-Fluor-T-deoxyuridine (10 μM) were added to the culture medium at 3 d in vitro (DIV) and maintained for 48 h to inhibit non-neuronal cell proliferation before the cultures were returned to the normal culture medium. Mature neurons (12-14 DIV) were used for experiments.
In order to induce excitotoxicity, 12-14 DIV cultured neurons were washed and transferred to Mg2+-free extracellular solution (ECS) containing the following (in mM): 25 HEPES acid, 140 NaCl, 33 glucose, 5.4 KCl, and 1.3 CaCl2, with pH 7.35 and osmolarity 320-330 mOsm. […]
For western blotting, 10 μg of the nuclear extract or 40 μg of total cell lysate (solubilized by 1% SDS, 1 mM EGTA, 1 mM EDTA, 1 mM DTT, 2 mM sodium orthovanadate, and protease inhibitors cocktail in PBS) from each treatment condition was separated with SDS-PAGE, transferred onto a polyvinylidene difluoride (PVDF) membrane, and probed with the relevant antibodies. […] Band intensities were quantified using NIH ImageJ™ software and normalized to the quantity of a nuclear marker or β-tubulin in each sample lane.

Substance: KEIVSRNKRRYQED-YGRKKRRQRRR (KEIVSRNKRRYQEDYGRKKRRQRRR; PTEN K13 interference peptide conjugated to TAT protein transduction domain) [Peptide-K13]
- PTEN nuclear translocation (western blotting of nuclear fractions): prevents PTEN nuclear translocation
